# Laboratory results: patent US20130023531A1, “PYRIMIDO[5,4-D]PYRIMIDYLAMINO PHENYL SULFONAMIDES AS SERINE/THREONINE KINASE INHIBITORS” (BOEHRINGER INGELHEIM INTERNATIONAL GMBH, priority 2011, published 2013)
# Tested on: SK-MEL-28 cells (B-RAF V600E mutated)
# Test: Inhibition of the proliferation of cultivated human melanoma cells (SK-MEL-28), AlamarBlue
# Format: cell-based
# Details: Homo sapiens, SK-MEL-28, 72 h, SK-MEL-28 melanoma cells, 72 h incubation
# Method: Measurement of the Inhibition of the Proliferation of Cultivated Human Melanoma Cells (SK-MEL-28, B-RAF^V600E mutated)
# For measuring the proliferation of cultivated human tumour cells, cells of the melanoma cell line SK-MEL-28 [from American Type Culture Collection (ATCC)] are cultivated in MEM medium, supplemented with 10% foetal calf serum, 2% sodium bicarbonate, 1 mM sodium pyruvate, 1% non-essential amino acids (e.g. from Cambrex, # BE13-114E) and 2 mM glutamine. SK-MEL-28 cells are placed in 96-well flat bottomed dishes in a density of 2500 cells per well in supplemented MEM medium (see above) and incubated overnight in an incubator (at 37° C. and 5% CO2). The active substances are added to the cells in different concentrations, so that a concentration range of 50 μM to 3.2 nM is covered. If necessary the initial concentration of 50 μM is changed to 10 μM or 2 μM and further dilution is carried out accordingly (up to 0.6 nM or 0.12 nM). After an incubation period of a further 72 h 20 μL AlamarBlue reagent (Serotec Ltd., # BUF012B) are added to each well and the cells are incubated for a further 3-6 h. The colour change of the AlamarBlue reagent is determined in a fluorescence spectrophotometer (e.g. Gemini, Molecular Devices). EC50 values are calculated using a software program (GraphPadPrizm).
row,Compound,EC50 [nM]
1,CCCS(=O)(=O)Nc1ccc(F)c(Nc2ncnc3cnc(NCCOC)nc23)c1F [Example I-33],1800
2,CCCS(=O)(=O)Nc1ccc(F)c(Nc2ncnc3cnc(N4CCC5(CCN(C)CC5)CC4)nc23)c1F [Example I-21],440
3,CCCS(=O)(=O)Nc1ccc(F)c(Nc2ncnc3cnc(-n4cncn4)nc23)c1F [Example I-24],1500
4,CCCS(=O)(=O)Nc1ccc(F)c(Nc2ncnc3cnc(Nc4ccc(N5CCN(C)CC5)cc4)nc23)c1F [Example I-29],526
5,CCCS(=O)(=O)Nc1ccc(F)c(Nc2ncnc3cnc(N4CCN(CCN(C)C)CC4)nc23)c1F [Example I-15],781
6,CCCS(=O)(=O)Nc1ccc(F)c(Nc2ncnc3cnc(N4CCC(CN5CCCC5)CC4)nc23)c1F [Example I-12],952
7,CCCS(=O)(=O)Nc1ccc(F)c(Nc2ncnc3cnc(N4CCC(F)(F)C4)nc23)c1F [Example I-6],493
8,CCCS(=O)(=O)Nc1ccc(F)c(Nc2ncnc3cnc(N4CCC(CN(CC)CC)CC4)nc23)c1F [Example I-14],1670
9,CCCS(=O)(=O)Nc1ccc(F)c(Nc2ncnc3cnc(NC4CC(N5CCN(C)CC5)C4)nc23)c1F (stereo not drawn) [Example I-10],1270
10,CCCS(=O)(=O)Nc1ccc(F)c(Nc2ncnc3cnc(N4CCC(C(C)N(C)C)CC4)nc23)c1F (stereo not drawn) [Example I-20],1590
11,CCCS(=O)(=O)Nc1ccc(F)c(Nc2ncnc3cnc(N4CCN(CCOC)CC4)nc23)c1F [Example I-3],1190
12,CCCS(=O)(=O)Nc1ccc(F)c(Nc2ncnc3cnc(-n4ccc(C)n4)nc23)c1F [Example I-27],807
13,CCCS(=O)(=O)Nc1ccc(F)c(Nc2ncnc3cnc(-n4cnc(C)c4)nc23)c1F [Example I-1],276
14,CCCS(=O)(=O)Nc1ccc(F)c(Nc2ncnc3cnc(-n4ccnc4)nc23)c1F [Example I-30],504
15,CCCS(=O)(=O)Nc1ccc(F)c(Nc2ncnc3cnc(N4CCN(C5CCN(C)CC5)CC4)nc23)c1F [Example I-11],1070
16,CCCS(=O)(=O)Nc1ccc(F)c(Nc2ncnc3cnc(N4CCC(CN(C)C)CC4)nc23)c1F [Example I-19],1250

row,Compound,EC50 [nM]
1,CCCS(=O)(=O)Nc1ccc(F)c(Nc2ncnc3cnc(NC4CCN(C)CC4)nc23)c1F [Example I-13],1480
2,CCCS(=O)(=O)Nc1ccc(F)c(Nc2ncnc3cnc(NC4CCOC4)nc23)c1F (stereo not drawn) [Example I-5],668
3,CCCS(=O)(=O)Nc1ccc(F)c(Nc2ncnc3cnc(-n4ccnc4C)nc23)c1F [Example I-32],297
4,CCCS(=O)(=O)Nc1ccc(F)c(Nc2ncnc3cnc(N4CCN(CCN5CCOCC5)CC4)nc23)c1F [Example I-9],1140
5,CCCS(=O)(=O)Nc1ccc(F)c(Nc2ncnc3cnc(NC4CCN(CCOC)CC4)nc23)c1F [Example I-17],1600
6,CCCS(=O)(=O)Nc1ccc(F)c(Nc2ncnc3cnc(Nc4ccncc4)nc23)c1F [Example I-28],424
7,CCCS(=O)(=O)Nc1ccc(F)c(Nc2ncnc3cnc(N4CCOCC4)nc23)c1F [Example I-2],514
8,CCCS(=O)(=O)Nc1ccc(F)c(Nc2ncnc3cnc(-n4cccn4)nc23)c1F [Example I-31],936
9,CCCS(=O)(=O)Nc1ccc(F)c(Nc2ncnc3cnc(-n4cnc(C)c4C)nc23)c1F [Example I-25],143
10,CCCS(=O)(=O)Nc1ccc(F)c(Nc2ncnc3cnc(N(C)C)nc23)c1F [Example I-23],1630
11,CCCS(=O)(=O)Nc1ccc(F)c(Nc2ncnc3cnc(N[C@H]4CCOC4)nc23)c1F [Example I-22],919
12,CCCS(=O)(=O)Nc1ccc(F)c(Nc2ncnc3cnc(N4CCN(C)CC4)nc23)c1F [Example I-4],1480
13,CCCS(=O)(=O)Nc1ccc(F)c(Nc2ncnc3cnc(-n4cc(C)nc4C)nc23)c1F [Example I-26],212
14,CCCS(=O)(=O)Nc1ccc(F)c(Nc2ncnc3cnc(N[C@H]4CC[C@H](N5CCOCC5)CC4)nc23)c1F [Example I-16],1030
15,CCCS(=O)(=O)Nc1ccc(F)c(Nc2ncnc3cnc(N4C[C@@H](C)O[C@@H](C)C4)nc23)c1F [Example I-18],774

# Same assay, conditions: SK-MEL-28 melanoma cells, 72 h incubation
row,Compound,EC50 [nM]
1,CCCS(=O)(=O)Nc1ccc(F)c(Nc2ncnc3cnc(N4CC[C@H](F)C4)nc23)c1F [Example I-8],522
2,CCCS(=O)(=O)Nc1ccc(F)c(Nc2ncnc3cnc(N4CC[C@H](F)C4)nc23)c1F [Example I-7],176
